From PMC12528394, “Screening and evaluation of therapeutic candidates with vascular protective effects in zebrafish models of diabetic retinopathy” (Scientific Reports, 2025)

Legend:
Format in all cases: in vivo
zebrafish DR model = assay: Zebrafish diabetic retinopathy model (130 mM glucose): survival and hyaloid-retinal vessel diameter; details: 100 µg/ml, 3 to 6 dpf, n = 40 per group
Procedure: On day 3 post-fertilization, zebrafish embryos with normal differentiation were treated with 130 mM glucose in a 24-well plate (5 embryos per well) to induce a diabetic retinopathy model. Peptides 1, 2, and 3 were administered at concentrations of 20, 100, 200, and 400 µg/ml. On day 6 post-fertilization, embryos were fixed with 4% paraformaldehyde and the hyaloid-retina vessels were isolated. Further experimental details can be found in previous studies.

Angiopoietin-1 = assay: RT-PCR mRNA expression in zebrafish DR model; details: 100 µg/ml, 130 mM glucose, eyes at 6 dpf, RT-PCR normalized to GAPDH, triplicate
Procedure: (§1) The total RNA were extracted from the eyes at 6 dpf using the mRNA kit (PureLink™ RNA Mini Kit, Ambion). The mRNA was measured with a NanoDrop spectrophotometer (Thermo Scientific, Madison, WI, USA) for quantitative analysis and a cDNA synthesis with a SuperScript VILO cDNA Synthesis Kit (Thermo Scientific, Carlsbad, CA, USA). The cDNA was amplified by PCR with zebrafish primer GAPDH, VEGF, Tie2 and Ang-1 with SYBR Green Master Mix (Thermo Scientific, Carlsbad, CA, USA). The mRNA was detected by ViiA7 Real-Time PCR system (Thermo Scientific, Carlsbad, CA, USA). The values were normalized to GAPDH expression. Samples were analyzed in triplicate.

Tie2 = assay: RT-PCR mRNA expression in zebrafish DR model; details: 100 µg/ml, 130 mM glucose, eyes at 6 dpf, RT-PCR normalized to GAPDH, triplicate
Procedure: as §1

VEGF = assay: RT-PCR mRNA expression in zebrafish DR model; details: 100 µg/ml, 130 mM glucose, eyes at 6 dpf, RT-PCR normalized to GAPDH, triplicate
Procedure: as §1

aflibercept
retinal vessel thickness relative to glucose-only group (in words) (zebrafish DR model): effectively reduced
Angiopoietin-1 mRNA level versus high-glucose group (in words) (Angiopoietin-1): partially restored
Tie2 mRNA level versus high-glucose group (in words) (Tie2): partially restored
VEGF mRNA level versus high-glucose group (in words) (VEGF): significantly reduced
